Experimental data as given in US20230140132A1, “ARGINASE INHIBITORS AND METHODS OF USE” (MERCK SHARP & DOHME LLC, priority 2020, published 2023).

Legend:
[1] = test system: rabbit and human penile corpus cavernosum; details: Cox et al. 1999; cited from earlier work
[2] = test system: experimental autoimmune encephalomyelitis; details: Xu et al. 2003; cited from earlier work
[3] = test system: corpus cavernosum of the diabetic person; details: ex vivo, Bivalacqua et al. 2001; cited from earlier work
erectile response = details: live male rabbits; Cama et al. 2003; cited from earlier work
[4] = test system: opossum internal anal sphincter muscle; details: Baggio et al. 1999; cited from earlier work
[5] = test system: engorgement response in the genitalia; details: live female rabbits; Cama et al. 2003; cited from earlier work
[6] = test system: airway hyperresponsiveness; details: guinea pigs, nebulizer treatment, allergic asthma model; cited from earlier work
Arginase = target: T1, Arginase (Homo sapiens, UniProt P05089); assay: Arginase Thioornithine Generating Assay (TOGA); assay type: biochemical; details: recombinant arginase 1.88 nM, thioarginine substrate, fluorescence readout
T1 sequence (P05089 1-322): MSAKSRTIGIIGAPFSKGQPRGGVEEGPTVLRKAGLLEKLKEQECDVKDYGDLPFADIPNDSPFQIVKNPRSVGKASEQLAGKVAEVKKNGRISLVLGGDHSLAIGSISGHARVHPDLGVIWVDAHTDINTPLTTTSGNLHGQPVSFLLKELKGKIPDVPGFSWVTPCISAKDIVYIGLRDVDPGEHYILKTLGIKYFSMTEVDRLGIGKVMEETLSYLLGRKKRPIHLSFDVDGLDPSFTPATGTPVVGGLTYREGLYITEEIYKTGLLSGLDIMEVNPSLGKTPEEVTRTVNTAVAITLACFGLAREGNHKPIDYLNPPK
Procedure: Compounds were serially diluted in ten 3-fold steps in DMSO starting from 10 mM DMSO stocks. Compound dilutions or DMSO alone were then dispensed from the dilution plate into a Greiner black 384-well assay plate (catalog #781086) using an Echo 555 acoustic liquid handler (Labcyte).
Arginase protein was recombinantly expressed in Escherichia coli. Purified protein was then diluted in assay buffer (50 mM Tris pH 7.5, 50 mM NaCl, 1 mM manganese chloride, 0.05% bovine serum albumin to obtain a final Arginase concentration of 1.88 nM. Arginase solution (20 μL) or buffer alone (20 μL) were dispensed to wells of the assay plate using a BioRAPTR liquid dispenser (Beckman Coulter). Assay plates containing compound and arginase enzyme were incubated at room temperature for 30 minutes. Afterwards, 5 μL of 2.5 mM thioarginine (Cayman Chemicals) in assay buffer were added to each well of the assay plate using a BioRAPTR liquid dispenser. Plates were incubated at room temperature for 60 minutes and reactions were quenched by addition of 15 μL of 200 uM 7-Diethylamine-3-(4-maleimidophenyl)-4-methylcoumarin (Sigma Chemical) in 70% ethanol. Plates were briefly shaken to mix and the fluorescence was measured in an Spectramax plate reader (Molecular Devices) with a 410 nm excitation wavelength and an 490 nm emission wavelength.
Potencies were calculated by […] to the four parameter logistic IC50 equation.

Q: With `N[C@@H](CCCCB(O)O)C(=O)O` [ABH, (S)-2-amino-6-boronohexanoic acid] as the compound, how does the “nitric oxide-dependent relaxation of corpus cavernosum tissue” value [1] read?
A: enhances the nitric oxide-dependent relaxation of this tissue

Q: And the disease score [2]?
A: improves the disease score of animals

Q: What about the nitric oxide biosynthesis [3] of the same compound?
A: restores nitric oxide biosynthesis

Q: And the erectile response (erectile response)?
A: enhances the erectile response

Q: And the “relaxation of internal anal sphincter muscle” value [4]?
A: relax this muscle

Q: And the “engorgement response in the genitalia” value [5]?
A: enhances the engorgement response

Q: And the airway hyperresponsiveness [6]?
A: prevents airway hyperresponsiveness

Q: For `O=C(O)[C@H]1NC[C@@H]2NCC[C@@]21CCCB(O)O` [Example 1, (3aS,4S,6aR)-3a-(3-boronopropyl)octahydropyrrolo[3,4-b]pyrrole-4-carboxylic Acid], which IC50 (Arginase) is on record?
A: 1.61 nM

Q: For `C[C@]1(CCCB(O)O)[C@@H](C(=O)O)N[C@@H]2CC[C@@H]21` [Example 17, (1R,3S,4R,5R)-4-(3-boronopropyl)-4-methyl-2-azabicyclo[3.2.0]heptane-3-carboxylic Acid], which IC50 (Arginase) is on record?
A: 66.5 nM

Q: Which IC50 (Arginase) does the source give for `C[C@]1(CCCB(O)O)[C@@H](C(=O)O)N[C@H]2C[C@H]21` [Example 24, (1S,3S,4R,5S)-4-(3-boronopropyl)-4-methyl-2-azabicyclo[3.1.0]hexane-3-carboxylic Acid] here?
A: 5740 nM

Q: For `O=C(O)[C@H]1NC[C@@H]2NC[C@@]21CCCB(O)O` [Example 34, (1S,2S,5R)-1-(3-boronopropyl)-3,6-diazabicyclo[3.2.0]heptane-2-carboxylic Acid], which IC50 (Arginase) is on record?
A: 104 nM
